Assay results from PubChem BioAssay AID1919010 (Molecular Pharmacology Branch, DTP, NCI, 2023).

System: Hs578T complex spheroid growth, percent test/control
Assay: Anticancer human tumor Hs578T cell line growth inhibition [AhR];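 note: luminescent viability signal as a proxy for spheroid growth; spheroids exposed to agents for one week after three days of growth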
Details: for IC50: curve of first compound; for viability, T/C: stronger effect = lower value
Summary of the method: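 Spheroids combined tumor cells with HUVEC endothelial cells and human MSCs as stroma. AhR antagonists were paired with standard or investigational drugs, each dosed in half-log steps down from near clinical Cmax, or from 10 microM where Cmax was unknown.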

[1] = second compound 0.1 µM, first compound 0.0316 µM
[2] = second compound 0.1 µM, first compound 0.1 µM
[3] = second compound 0.1 µM, first compound 0.316 µM
[4] = second compound 0.1 µM, first compound 1 µM
[5] = second compound 0.1 µM, first compound 3.16 µM
[6] = second compound 0.1 µM, first compound 10 µM
[7] = second compound 0.316 µM, first compound 0.0316 µM
[8] = second compound 0.316 µM, first compound 0.1 µM
[9] = second compound 0.316 µM, first compound 0.316 µM
[10] = second compound 0.316 µM, first compound 1 µM
[11] = second compound 0.316 µM, first compound 3.16 µM
[12] = second compound 0.316 µM, first compound 10 µM
[13] = second compound 1 µM, first compound 0.0316 µM
[14] = second compound 1 µM, first compound 0.1 µM
[15] = second compound 1 µM, first compound 0.316 µM
[16] = second compound 1 µM, first compound 1 µM
[17] = second compound 1 µM, first compound 3.16 µM
[18] = second compound 1 µM, first compound 10 µM
[19] = second compound 3.16 µM, first compound 0.0316 µM
[20] = second compound 3.16 µM, first compound 0.1 µM
[21] = second compound 3.16 µM, first compound 0.316 µM
[22] = second compound 3.16 µM, first compound 1 µM
[23] = second compound 3.16 µM, first compound 3.16 µM
[24] = second compound 3.16 µM, first compound 10 µM
[25] = second compound 10 µM, first compound 0.0316 µM
[26] = second compound 10 µM, first compound 0.1 µM
[27] = second compound 10 µM, first compound 0.316 µM
[28] = second compound 10 µM, first compound 1 µM
[29] = second compound 10 µM, first compound 3.16 µM
[30] = second compound 10 µM, first compound 10 µM

Row | IC50 (second compound 0.1 µM) [nM] | IC50 (second compound 0.316 µM) [nM] | IC50 (second compound 1 µM) [nM] | IC50 (second compound 3.16 µM) [nM] | IC50 (second compound 10 µM) [nM] | Compound | viability, T/C [1] [%] | viability, T/C [2] [%] | viability, T/C [3] [%] | viability, T/C [4] [%] | viability, T/C [7] [%] | viability, T/C [8] [%] | viability, T/C [9] [%] | viability, T/C [10] [%] | viability, T/C [13] [%] | viability, T/C [14] [%] | viability, T/C [15] [%] | viability, T/C [16] [%] | viability, T/C [19] [%] | viability, T/C [20] [%] | viability, T/C [21] [%] | other results
1 | > 10000 | > 10000 | > 10000 | 8990 | 5160 | COc1cc(C2c3cc4c(cc3C(OC3OC5COC(C)OC5C(O)C3O)C3COC(=O)C23)OCO4)cc(OC)c1O (stereo not given) + Cc1ccccc1N=Nc1ccc(NC(=O)c2ccnn2C)c(C)c1 | 97.1 | 96.1 | 77.3 | 72.8 | 101 | 103 | 88.9 | 83.1 | 92.6 | 86.4 | 77.3 | 73.9 | 81.2 | 78.8 | 76.9 | viability, T/C [5]: 79.5%; viability, T/C [6]: 57.9%; viability, T/C [11]: 72.2%; viability, T/C [12]: 68.9%; viability, T/C [17]: 66.3%; viability, T/C [18]: 63.1%; viability, T/C [22]: 73.7%; viability, T/C [23]: 68.5%; viability, T/C [24]: 48%; viability, T/C [25]: 68.6%; viability, T/C [26]: 68.1%; viability, T/C [27]: 67.6%; viability, T/C [28]: 57.6%; viability, T/C [29]: 54.4%; viability, T/C [30]: 44.9%
2 | 240 | 279 | 373 | 353 | 368 | COc1cccc2c1C(=O)c1c(O)c3c(c(O)c1C2=O)CC(O)(C(=O)CO)CC3OC1CC(N)C(O)C(C)O1 (stereo not given) + Cc1ccccc1N=Nc1ccc(NC(=O)c2ccnn2C)c(C)c1 | 89.8 | 72.5 | 44.7 | 10 | 67.9 | 64.2 | 48.3 | 9.72 | 80.4 | 75 | 56.3 | 14.4 | 68.7 | 63.2 | 54.5 | viability, T/C [5]: 2.16%; viability, T/C [6]: 2.24%; viability, T/C [11]: 1.94%; viability, T/C [12]: 2.15%; viability, T/C [17]: 1.79%; viability, T/C [18]: 2.15%; viability, T/C [22]: 10.2%; viability, T/C [23]: 1.55%; viability, T/C [24]: 1.85%; viability, T/C [25]: 65.2%; viability, T/C [26]: 64.4%; viability, T/C [27]: 56.6%; viability, T/C [28]: 6.88%; viability, T/C [29]: 1.17%; viability, T/C [30]: 1.93%
3 | > 1000 | > 1000 | > 1000 | > 1000 | > 1000 | Nc1ncn(C2CC(O)C(CO)O2)c(=O)n1 (stereo not given) + Cc1ccccc1N=Nc1ccc(NC(=O)c2ccnn2C)c(C)c1 | 97.2 | 98 | 99.2 | 90 | 96.8 | 98.9 | 85.8 | 81.6 | 106 | 91.8 | 86.2 | 84.9 | 85.9 | 90.8 | 78.5 | viability, T/C (second compound 0.1 µM, first compound 0.00316 µM): 103%; viability, T/C (second compound 0.1 µM, first compound 0.01 µM): 109%; viability, T/C (second compound 0.316 µM, first compound 0.00316 µM): 97.5%; viability, T/C (second compound 0.316 µM, first compound 0.01 µM): 97.2%; viability, T/C (second compound 1 µM, first compound 0.00316 µM): 95.4%; viability, T/C (second compound 1 µM, first compound 0.01 µM): 92%; viability, T/C (second compound 3.16 µM, first compound 0.00316 µM): 83.3%; viability, T/C (second compound 3.16 µM, first compound 0.01 µM): 87.2%; viability, T/C [22]: 79.8%; viability, T/C (second compound 10 µM, first compound 0.00316 µM): 63%; viability, T/C (second compound 10 µM, first compound 0.01 µM): 70.5%; viability, T/C [25]: 60.9%; viability, T/C [26]: 66%; viability, T/C [27]: 63.4%; viability, T/C [28]: 68%
